Results: patent US5985603A, “P2x receptor DNA and protein sequence” (Glaxo Group Limited, priority 1994, dated 1999)
Where a name gives a salt, the structure may show the parent alone.

Legend:
[1] = target: T1, rat superior cervical ganglion P2X receptor (clone 3) (Rattus norvegicus, UniProt P51577); assay: functional properties of cloned P2X receptors (electrical recordings): clone 3; format: cell-based; details: Table A, extracellular calcium 30 mM in text
T1 construct: The insert appeared to be a full length cDNA; expressed in transfected cells; host or cells: HEK293 cells transfected with pcDNA3 construct p464 (also oocytes injected with in vitro transcribed RNA)
T1 sequence (P51577 1-388): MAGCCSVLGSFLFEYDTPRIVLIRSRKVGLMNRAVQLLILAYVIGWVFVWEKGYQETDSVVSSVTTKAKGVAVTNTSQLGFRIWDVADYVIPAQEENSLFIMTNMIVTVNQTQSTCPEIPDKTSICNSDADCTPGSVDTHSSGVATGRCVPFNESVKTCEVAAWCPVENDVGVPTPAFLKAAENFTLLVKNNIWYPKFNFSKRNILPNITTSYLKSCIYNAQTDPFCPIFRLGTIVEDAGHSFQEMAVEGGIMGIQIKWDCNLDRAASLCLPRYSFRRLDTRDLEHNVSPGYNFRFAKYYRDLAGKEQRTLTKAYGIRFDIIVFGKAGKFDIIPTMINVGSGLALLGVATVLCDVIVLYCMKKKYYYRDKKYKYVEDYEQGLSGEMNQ
Protocol: (§1) HEK 293 cells were transfected by the lipofectin method (Felgner et al., Proc. Nat'l. Acad. Sci. USA 84 7413-7417 (1987)) with P2X -plasmid. DNA concentration used was 1 mg/2 ml medium placed into a 35 mm petri dish containing four 11 mm diameter coverslips on which HEK cells were placed at 10,000 cells per coverslip. […] Currents were recorded from HEK 293 cells using whole-cell recording methods and the AXOPATCH™ 200 amplifier (Axon Instruments); patch pipettes (5 M.OMEGA.) contained (mM) Cs or K aspartate 140, NaCl 5, EGTA 11, HEPES 5. The external solution was (mM) NaCl 150, KCl2, CaCl2 2, MgCl2 1, HEPES 5 and glucose 11; the pH and osmolarity of both solutions were maintained at 7.3 and 305 mosmol/l respectively. All recordings performed at room temperature. Data acquisition and analysis were performed using pCLAMP™ and AXOGRAPH™ software (Axon Instruments). […] The pH and osmolarity of the solutions were 7.4 and 295 mosmol/l respectively. For single channel measurements, a […]™ 500 amplifier and outside-out recording methods were used (Adelman et al., Neuron 9 209-216 (1992)). Wax-coated patch pipettes (5-10 M.OMEGA.) contained (mM) K-gluconate 115, HEPES 5, BAPTA 5 and MgCl2 0.5, external solution was 96 mM NaCl, 2 mM KCl, 1.8 mM CaCl2, 1 mM MgCl2, 5 mM Hepes pH 7.6, and 5 mM sodium pyruvate.
(§2) The functional characterisation of the clone illustrated in FIG. 2 (referred to herein as clone 3) was carried out by electrical recordings from transfected HEK293 cells and from oocytes injected with the in vitro transcribed RNA, as described in Example 4 for the rat vas deferens P2X receptor. Table A summarizes the main properties of clone 3 as compared to those of rat vas/human bladder cDNA clone, and the PC12 cDNA clone (provided by David Julius and Tony Brake of the University of California at San Francisco).

PC12 P2X receptor = target: T2, PC12 P2X receptor (Rattus norvegicus, UniProt P49653); assay: functional properties of cloned P2X receptors (electrical recordings): PC12; format: cell-based; details: for Ca++ block, PC12: Table A, extracellular calcium 30 mM in text
T2 construct: host or cells: HEK293 cells (oocytes are also named for the functional characterisation of clone 3)
T2 sequence (P49653 1-472): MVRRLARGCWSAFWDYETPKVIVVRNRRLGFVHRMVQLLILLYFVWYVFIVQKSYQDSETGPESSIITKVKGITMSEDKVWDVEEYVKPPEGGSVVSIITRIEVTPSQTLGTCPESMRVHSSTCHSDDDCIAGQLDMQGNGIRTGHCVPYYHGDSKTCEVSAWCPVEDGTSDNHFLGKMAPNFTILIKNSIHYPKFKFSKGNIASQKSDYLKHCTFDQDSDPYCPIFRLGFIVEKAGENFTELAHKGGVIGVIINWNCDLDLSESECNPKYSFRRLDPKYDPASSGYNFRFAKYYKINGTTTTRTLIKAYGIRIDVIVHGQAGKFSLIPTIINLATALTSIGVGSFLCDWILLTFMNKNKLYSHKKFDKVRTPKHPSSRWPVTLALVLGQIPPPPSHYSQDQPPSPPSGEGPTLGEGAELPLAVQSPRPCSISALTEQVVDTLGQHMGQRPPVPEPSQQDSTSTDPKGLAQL
Protocol: as §1, §2

[2] = target: T3, rat vas/human bladder P2X cDNA clone (Homo sapiens, UniProt P51575); assay: functional properties of cloned P2X receptors (electrical recordings): bladder; format: cell-based; details: Table A, extracellular calcium 30 mM in text
T3 construct: expressed in transfected cells; host or cells: HEK293 cells (oocytes are also named for the functional characterisation)
T3 sequence (P51575 1-399): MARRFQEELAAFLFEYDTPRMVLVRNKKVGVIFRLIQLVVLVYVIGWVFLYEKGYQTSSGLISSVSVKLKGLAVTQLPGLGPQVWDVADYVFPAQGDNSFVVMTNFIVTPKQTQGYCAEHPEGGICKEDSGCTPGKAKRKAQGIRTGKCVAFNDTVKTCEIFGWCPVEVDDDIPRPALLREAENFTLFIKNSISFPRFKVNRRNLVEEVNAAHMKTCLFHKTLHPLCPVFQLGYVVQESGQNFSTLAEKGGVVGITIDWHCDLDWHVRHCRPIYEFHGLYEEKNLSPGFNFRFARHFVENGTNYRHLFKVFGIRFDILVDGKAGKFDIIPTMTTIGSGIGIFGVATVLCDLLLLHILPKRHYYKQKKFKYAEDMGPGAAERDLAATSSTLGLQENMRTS
Protocol: DNA concentration used was 1 mg/2 ml medium placed into a 35 mm petri dish containing four 11 mm diameter coverslips on which HEK cells were placed at 10,000 cells per coverslip. […] Currents were recorded from HEK 293 cells using whole-cell recording methods and the AXOPATCH™ 200 amplifier (Axon Instruments); patch pipettes (5 M.OMEGA.) contained (mM) Cs or K aspartate 140, NaCl 5, EGTA 11, HEPES 5. […] All recordings performed at room temperature. Data acquisition and analysis were performed using pCLAMP™ and AXOGRAPH™ software (Axon Instruments). […] ATP was applied by U-tube typically for 1 s; data was sampled at 5 kHz in 2 s segments beginning 300 ms prior to onset of agonist (ATP) application and filtered at 1 kHz.

hP2X = target: T4, hP2X (Homo sapiens, UniProt P51575); assay: antagonist inhibition of ATP-evoked currents in Xenopus oocytes expressing hP2X; format: cell-based
T4 construct: expressed in transfected cells; host or cells: Xenopus oocytes injected with in vitro transcribed RNA
T4 sequence (P51575 1-399): T3 sequence (P51575 1-399)
Protocol: Human urinary bladder P2X cDNA, subcloned into the pBKCMV expression vector, was linearized with Notl, and transcribed in vitro with T3 polymerase in the presence of cap analogue m7G(5')ppp(5')G. Defolliculated Xenopus oocytes (Bertrand et al, Electrophysiology of neuronal nicotinic acetylcholine receptors expressed in Xenopus oocytes following nuclear injection of genes or cDNAs Meth Neurosci 4: 174-193 (1991)) were injected with 50 ng of human P2X in vitro transcribed RNA, and incubated at 18° C. for 2-6 days in the ND96 solution (mM): NaCl96, KCl2, MgCl2 1, CaCl2 2, sodium pyruvate 5, HEPES 5, ph 7.6-7.5, penicillin (10 U/ml), and streptomycin (10 μg/ml).
Oocytes were placed in a 1 ml chamber and superfused at 2-3 ml/min with ND96 solution with 0.1 mM BaCl2 replacing the 2 mM CaCl2 to prevent activation of endogenous calcium-activated chloride currents (Barish, A transient calcium-dependent chloride current in the immature Xenopus oocytes J Physiol 342: 309-325 (1983)). Currents were measured using a two-electrode voltage-clamp amplifier (Geneclamp Axon Instruments)at a holding potential of -60 mV. Microelectrodes were filled with 3 M KCl (0.5-2 M.OMEGA.). Data were collected using PClamp software (Axon Instruments). ATP and other purinoceptor agonists were applied by a U-tube perfusion system (Fenwick et al, A patch clamp study of bovine chromaffin cells and their sensitivity to acetylcholine J Physiol 331: 577-597 (1982)) placed close (200-500 μm) to the oocyte. […] Concentration response relationships to ATP and its analogs were determined by measuring the peak amplitude of responses to a 5 s application of agonist applied at 10 min intervals. Responses to agonists were normalized in each oocyte to the peak response evoked by 100 μM ATP; 100 μM ATP was usually applied at the beginning and at the end of an experiment to determine if there was any rundown of the response. […] Antagonists were applied both in the superfusate and together with ATP in the U-tube solution. Antagonists were superfused for 5-10 min prior to the application of ATP.
Concentration response curves for purinoceptor agonists were fitted with a Hill slope of 1. Equi-effective concentrations i.e. concentration of agonist, giving 50% of the response to 100 μM ATP, (EEC50) were determined from individual concentration response curves. […] Data are presented throughout as mean ± SEM for a given number of oocytes.

hP2X mRNA = assay: induction of hP2X mRNA in HL60 cells by Northern blot; format: cell-based, human; details: 1.8 and 2.6 kb bands
Protocol: HL60 cells (human promyelocytes ATCC CCL240) were passaged twice weekly in RPMI-1640 supplemented with 25 mnM HEPES, 2 mM Glutamax II, and 10% heat-inactivated fetal calf serum (GIBCO BRL) . For each experiment 33×10^6 cells were resuspended at 2.5×10^5 cells/ml in medium containing either phorbol mystate acetate (100 nM), 1. 1% DMSO, or dibutyryl cAMP (200 uM) (SIGMA) for the indicated times.
PolyA^+ RNAs were obtained from Clontech Laboratories Inc. (Palo Alto) except for the urinary bladder and HL60 mRNA which were prepared as described (Valera et al (1994)--supra) . Samples were quantified by measuring the O.D. at 260 nm, and by staining the membrane with methylene blue. The RNA were fractionated on a 1% agarose--6% formaldehyde gel and electroblotted to a non-charged nylon membrane (BDH). Prehybridisation at 68° C. was performed for 6 hours in hybridisation buffer (50% formamide, 5× SSC, 2% blocking buffer (Boehringer Mannheim), 0.1%6 laurolylsarcosine, 0.02% SDS). Hybridisation was overnight at 68° C. in fresh hybridisation buffer with a digoxigenin-UTP labelled riboprobe (100 ng/ml) corresponding to the entire hP2 × sequence. The membrane was washed at 68° C.; twice in 2× SSC+0.1% SDS, and twice in 0.1× SSC+0.1% SDS. Chemiluminescent detection of hybridisation was carried at room temperature as follows: the membrane was rinsed 5 min in buffer B1 (0.1 M maleic acid, 0.15 M NaCl, pH 7.5), saturated for 1 hour in 1% blocking buffer (B2), incubated 30 min with anti-digoxigenin-antibody alkaline phosphatase conjugated (750 u/ml, Boehringer Mannheim) diluted 1:15000 in B2, washed in B1+0.30% tween 20 (1× 5 min, 1× 15 min, 1× 1 h), equilibrated for 5 min in buffer B3 (0.1 M Tris HCl pH 9.5, 0.1 M NaCl, 50 mM MgCl2), incubated 45-60 sec in lumigen PPD (Boehringer Mannheim) diluted 1:100 in B3. The humid membrane was sealed in a plastic bag, incubated 15 min at 37° C., and exposed 15 to 20 min to Hyperfilm-ECL (Amersham). […]

[3] = listed as Extracellular calcium

SMILES: [Ca+2] [Ca^++, calcium]
- Ca++ block, clone 3 [1]: intermediate
- Ca++ block, clone 3 [1, 3]: intermediate in sensitivity
- Ca++ block, PC12 (PC12 P2X receptor): very strong
- Ca++ block, PC12 (PC12 P2X receptor; [3]): inhibits the inward current
- Ca++ block, bladder [2]: none
- Ca++ block, bladder [2, 3]: does not block current

SMILES: O=S(=O)(O)c1cc(N=C=S)ccc1C=Cc1ccc(N=C=S)cc1S(=O)(=O)O [DIDS, 4,4'-diisothiocyanatostilbene 2,2'-disulphonic acid, disodium salt]
- IC50 (hP2X): ~1000 nM
- inhibition of inward currents evoked by 10 μM ATP (hP2X; 10 μM ATP (approximately EC90)): inhibited inward currents evoked by 10 μM ATP
- reversibility of inhibitory effects on washout (hP2X; DIDS 100 μM): very slow to reverse on washout
- IC50 (PC12 P2X receptor): > 100000 nM

SMILES: C[S+](C)[O-] [DMSO]
- induction of P2X mRNA in HL60 cells (hP2X mRNA): produced an increase in P2X mRNA

SMILES: CCCC(=O)Nc1ncnc2c1ncn2[C@@H]1O[C@@H]2COP(=O)(O)O[C@H]2[C@H]1OC(=O)CCC [dibutryl cAMP, dibutyryl cAMP]
- induction of P2X mRNA in HL60 cells (hP2X mRNA): produced an increase in P2X mRNA

SMILES: CCCCCCCCCCCCCC(=O)O[C@@H]1[C@@H](C)[C@@]2(O)[C@@H](C=C(CO)C[C@]3(O)C(=O)C(C)=C[C@@H]23)[C@@H]2C(C)(C)[C@]12OC(C)=O [phorbol diesters, phorbol mystate acetate]
- induction of P2X mRNA in HL60 cells (hP2X mRNA): produced an increase in P2X mRNA
